SMILES strings stand for the structures. Where a name gives a salt, the structure may show the parent alone.

The source of these data is patent US4863949A, “Aminopropanol derivatives, processes for the preparation thereof, the use thereof and pharmaceutical compositions containing them” (Boehringer Mannheim GmbH, priority 1985, dated 1989).

In this assay the test system is livers. Kind of assay: denitration rate in perfused rat livers relative to isosorbide-5-mononitrate (nitrate-like action). More on the design: species or system rats. The note with it: rat livers perfused 4 min, equimolar 5×10^-5 M/l; freed NO2 in perfusate; high = fast denitration.
As for `O=C(CCCO[N+](=O)[O-])NCCNCC(O)COc1cccc2[nH]ccc12` (stereo not shown) [2 (11.), 1-indol-4-yloxy)-3-[2-(4-nitroxybutanoylamino)-ethylamino]-propan-2-ol hemifumarate], the “Vrel (denitration rate in relation to isosorbide-5-mononitrate)” value (shortened to “Vrel”) is listed as 0,95.
Turning to `O=C(CCCO[N+](=O)[O-])NCCNCC(O)COc1cccc2c1CC(=O)N2.O=C(O)/C=C/C(=O)O` (stereo not shown) [2 (17.), 3-[2-(4-nitroxybutanoylamino)-ethylamino]-1-(2-oxoindolin-4-yloxy)-propan-2-ol fumarate], the “Vrel” value is on record as 0,75.
With `CC(CCC(=O)NCCNCC(O)COc1cccc2c1CC(=O)N2)O[N+](=O)[O-]` (stereo not shown) [2 (29.), 3-[2-(4-nitroxypentanoylamino)-ethylamino]-1-(2-oxoindolin-4-yloxy)-propan-2-ol cyclamate] the figure was 0,86; with `O=C(CCCCO[N+](=O)[O-])NCCNCC(O)COc1cccc2c1CC(=O)N2` (stereo not shown) [2 (31.), 3-[2-(5-nitroxypentanoylamino)-ethylamino]-1-(2-oxoindolin-4-yloxy)-propan-2-ol hemifumarate], 0,66.
Take `Cc1ccc(Cl)c(OCC(O)CNC(C)(C)CNC(=O)CCCO[N+](=O)[O-])c1` (stereo not shown) [2 (46.), 1-(2-chloro-5-methylphenoxy)-3-[1,1-dimethyl-2-(4-nitroxybutanoylamino)-ethylamino]-propan-2-ol cyclamate]: the “Vrel” value is on record as 0,97.
To `CC(C)(CNC(=O)CCCO[N+](=O)[O-])NCC(O)COc1ccccc1C#N.O=C(O)/C=C/C(=O)O` (stereo not shown) [2 (48.), 1-(2-cyanophenoxy)-3-[1,1-dimethyl-2-(4-nitroxybutanoylamino)-ethylamino]-propan-2-ol fumarate] belongs 0,94.
With `C=CCc1ccccc1OCC(O)CNC(C)(C)CNC(=O)CCCO[N+](=O)[O-]` (stereo not shown) [2 (72.), 1-(2-allylphenoxy)-3-[1,1-dimethyl-2-(4-nitroxybutanoylamino)-ethylamino]-propan-2-ol cyclamate] the figure was 0,54; with `CC(=O)Oc1c(C)cc(OCC(O)CNC(C)(C)CNC(=O)CCCO[N+](=O)[O-])c(C)c1C.O=C(O)/C=C/C(=O)O` (stereo not shown) [8 (15.), 3-[1,1-dimethyl-2-(4-nitroxybutanoylamino)-ethylamino]-1-(4-methylcarbonyloxy-2,3,5-trimethylphenoxy)-propan-2-ol fumarate], 1,19.
To `Cn1cnc2cccc(OCC(O)CNC(C)(C)CNC(=O)O[C@H]3CO[C@H]4[C@@H]3OC[C@H]4O[N+](=O)[O-])c21` (stereo partly shown) [Example 11, 3-[1,1-Dimethyl-2-[(5-O-nitroisosorbid-2-yloxy)-carbonylamino]-ethylamino]-1-(3-methylbenzimidazol-4-yloxy)-propan-2-ol fumarate] belongs 1,23.
In the case of `O=[N+]([O-])O[C@@H]1CO[C@H]2[C@@H]1OC[C@@H]2O` [Isosorbide-5-mononitrate, isosorbide-5-mononitrate, reference compound], the “Vrel” value is on record as 0,86.
